Results on five compounds are retold here after US5494917A, “Cognition enhancing quinuclidine compound” (Kanegafuchi Kagaku Kogyo Kabushiki Kaisha, priority 1993, dated 1996).

Data set [1] relates to experimental amnesia in rat induced by lesioning basal forebrain (BF). The data set can be described thus: Anti-amnesic effect: step-through passive avoidance, amnesia induced by BF lesion (ibotenic acid). The data set is classed as in vivo, Wistar male rat. As to conditions: for Latency: retention after 24 hours, max 300 s; for minimal effective dose: Rattus norvegicus, oral, BF lesion amnesia, read-out: most potent minimal effective dose. On the procedure: (§1) As experimental animals, Wistar male rats and ddY male mice were used for the experiments after they were housed for a week under every 12 hours'dark-light cycle at room temperature of 24° to 26° C.
The effect on experimental amnesia in rat induced by lesioning basal forebrain (BF) was evaluated.
The experiment was carried out using an experimental apparatus of step-through type passive avoidance task for rat (made by Ohara-ika-sangyoK.K. ) comprising two compartments of dark and light. That is, the dark compartment (height: 200 cm, width: 150 cm, length: 200 cm) was a black plastic box and was floored with stainless grids for giving an electrical shock so that an electricity might be turned on a determined time after interception of a photobeam placed in the dark compartment. The light compartment made of transparent plastic (height: 200 cm, width: 250 cm, length: 200 cm) was provided adjacent to the dark compartment and was lightened from a location spaced 25 cm above by a 60 W electric lamp. Between the two compartments, there was provided an entrance with a guillotine door which could be opened and closed, and when the guillotine door was opened, a rat could freely move from one compartment to another.
Amnesia was induced by BF lesion. Among presently known methods for inducing amnesia, this method is considered to provide an animal model having the most similar pathology to Alzheimer's disease. The BF lesion was carried out by fixing an animal to a stereotaxic apparatus under nembutal anesthesia, inserting a stainless pipe into the BF area according to the brain map of Koenig, and injecting ibotenic acid bilaterally from the stainless pipe. In the sham-operation group, although craniotomy was carried out, ibotenic acid was not injected and therefore BF was not lesioned. The animals were used for experiments after recovery period of about 4 weeks.
Anti-amnesic effect was evaluated according to the following procedure.
A Wistar male rat (9 week-old) previously conditioned in the dark-light box was put in the light compartment and the guillotine door was opened. When the rat moved into the dark compartment, 150 V electrical shock was given for 3 seconds from the floor grid (aquisition trial). After 24 hours, retention trial was carried out in the same manner as in the aquisition trial, and latency, a period until the animal put in the light compartment entered the dark compartment, was measured maximally 300 seconds.
Every test compound was suspended in a distilled water containing 2.5% of gum arabic and 0.2% of Tween 80. […] The doses were 0.01 to 10 mg/kg.

Data set [2] concerns the target T1, M2 receptor (Rattus norvegicus, UniProt P10980).
T1 construct: from tissue; host or cells: rat heart, 40,000 g membrane fraction
T1 sequence (P10980 1-466): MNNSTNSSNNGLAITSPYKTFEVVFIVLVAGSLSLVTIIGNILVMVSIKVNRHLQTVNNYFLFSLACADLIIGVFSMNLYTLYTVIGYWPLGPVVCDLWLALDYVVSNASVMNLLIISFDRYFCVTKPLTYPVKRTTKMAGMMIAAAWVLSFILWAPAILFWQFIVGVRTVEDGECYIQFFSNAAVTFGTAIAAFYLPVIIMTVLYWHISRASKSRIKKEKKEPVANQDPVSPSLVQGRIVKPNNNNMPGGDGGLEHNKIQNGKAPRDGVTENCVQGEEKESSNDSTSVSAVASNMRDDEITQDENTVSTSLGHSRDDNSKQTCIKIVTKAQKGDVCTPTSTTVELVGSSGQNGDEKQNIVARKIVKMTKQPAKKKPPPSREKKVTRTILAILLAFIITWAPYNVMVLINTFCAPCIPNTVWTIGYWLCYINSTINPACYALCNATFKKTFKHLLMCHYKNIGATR
The data set can be described thus: M2 receptor binding ((3H)N-methyl scopolamine, heart). The protocol: The binding ability to M2 receptor was determined according to a modification of the method of Buckley et al. (Mol. Pharmacol., 35, 469 (1989)). Concretely, 10 volume (W/V) of 50 mM Tris-HCl buffer (pH 7.4) was added to rat's heart, and after the homogenization with polytron, the homogenate was centrifuged and washed twice at 500 g for 10 minutes. The resulting supernatant was centrifuged four times at 40,000 g for 20 minutes. To 450 μl of the test liquid which was prepared by re-suspending the resulting precipitate, were added 200 μl of (^3 H)N-methyl scopolamine, a muscarinic specific antagonist, and 100 μl of a test medicinal compound. After the incubation at 22° C. for 90 minutes, the amount of (^3 H)N-methyl scopolamine found was determined.
(§2) Ki is an affinity of a medicinal compound for a receptor, which is calculated from the following formula: [formula]
(§3) In addition, nH is pseudo Hill coefficient which represents the number of a binding part of a receptor. When the values of IC50 and Ki are smaller, a binding ability of a medicinal compound to a receptor is stronger.

Data set [3] in a line: Acute toxicity test, oral. As to conditions: mouse, in vivo; oral, 2 weeks observation; estimated. The class given is in vivo, ddY male mice. On the procedure: as §1
(§4) With respect to Compounds 1a and 1b shown in Table 1 as test compounds, the acute toxicity was examined using ddY mice according to the following method.
(§5) In each group, six male ddY mice weighing 27 to 30 g were employed. Compounds 1a and 1b suspended in an aqueous solution of 0.5% sodium carboxymethylcellulose were orally administered in a dose of 0.1 ml/10 g body weight. […] The LD50 (mg/kg) values were estimated from the ratio of the number of dead mice to the number of mice used.

Data set [4] concerns ddY mice. The data set can be described thus: Acute toxicity test, oral. The class given is in vivo, ddY male mice. The settings on record: 100 mg/kg oral, 2 weeks observation, 0.5% sodium carboxymethylcellulose. On the procedure: as §1, §4, §5
Data set [5] addresses T2, M1 receptor (Rattus norvegicus, UniProt P08482).
T2 construct: from tissue; host or cells: Wistar male rat cerebral cortex, washed homogenate
T2 sequence (P08482 1-460): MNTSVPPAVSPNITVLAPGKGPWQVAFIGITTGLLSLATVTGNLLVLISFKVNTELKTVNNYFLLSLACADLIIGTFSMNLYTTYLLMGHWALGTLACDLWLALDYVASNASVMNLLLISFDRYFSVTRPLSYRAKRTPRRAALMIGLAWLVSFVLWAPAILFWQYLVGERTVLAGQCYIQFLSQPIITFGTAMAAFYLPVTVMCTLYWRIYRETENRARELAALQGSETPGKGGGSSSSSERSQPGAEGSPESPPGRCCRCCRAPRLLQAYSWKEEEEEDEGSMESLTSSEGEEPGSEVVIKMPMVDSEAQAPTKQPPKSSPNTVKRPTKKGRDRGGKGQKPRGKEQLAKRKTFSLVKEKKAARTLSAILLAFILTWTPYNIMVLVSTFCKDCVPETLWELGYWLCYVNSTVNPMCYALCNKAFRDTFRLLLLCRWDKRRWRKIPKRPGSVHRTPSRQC
The data set can be described thus: M1 receptor binding ((3H)pirenzepine, cerebral cortex). Further details: species or system Wistar male rat. The settings on record: for nH (pseudo Hill coefficient) / IC50 / Ki: (3H)pirenzepine, rat cerebral cortex; for IC50: 25° C., 60 minutes, pH 7.4; for Ki: calculated from IC50; for M1 receptor binding ability / selectivity (in words): M1 vs M2; for M1 receptor binding ability compared with muscarinic agonists (in words): vs AF102B and McN-A-343. On the procedure:
The binding ability of the test compounds to M1 receptor was determined according to a modification of the method of Watson et al. (Life Sci., 32, 3001 (1983)). Concretely, 100 volume (W/V) of 10 mM Na--K phosphate buffer (pH 7.4) was added to a cerebral cortex of a Wistar male rat, and after the homogenization with polytron, the homogenate was centrifuged and washed twice. To 1 ml of the test liquid which was prepared by re-suspending the resulting precipitate, were added 20 μl of (^3 H)pirenzepine, M1 receptor specific antagonist, and 20 μl of a test medicinal compound. After the incubation at 25° C. for 60 minutes, the mixture was filtrated and washed with a glass filter, and an amount of (^3 H)pirenzepine bound to the receptor was counted by means of a liquid scintillation counter.
as §2, §3

[6] abbreviates: 0.1 mg/kg p.o., 1 hour before aquisition trial.
Setting [7] is: 1.0 mg/kg p.o., 1 hour before aquisition trial.
The mark [8] stands for this setting: (3H)N-methyl scopolamine, rat heart, 22° C., 90 minutes, pH 7.4.

SMILES strings stand for the structures.

In general, minimal effective dose refers to the lowest level tested that produced the effect sought. A word on the IC50: it is the point on the concentration scale where inhibition reaches its midpoint. High values mean a need for much substance, low ones inhibition by little substance. What is called LD50 is the dose at which mortality reaches 50%. For orientation: Ki means a measure of affinity in units of concentration, obtained from inhibition or displacement. Compound `C(=C1/CN2CCC1CC2)/c1cccc(Oc2ccccc2)c1` [Compound 1a] showed a Latency in data set [1] (setting [6]) of 38 s. The compound further showed a Latency in data set [1] (setting [7]) of 156 s. Also, in data set [1], the minimal effective dose is 1 mg/kg. The IC50 in data set [2] (setting [8]) was over 10000 nM. The LD50 at 336 h in data set [3] was at least 100 mg/kg. Moreover, in data set [4], the dead mice entry is recorded as “no dead mice”. In data set [5], the “nH (pseudo Hill coefficient)” value stood at 0.9 ± 0.06; the half-inhibitory concentration (IC50) was determined as 221 ± 32 nM; the Ki was 152 ± 22 nM; the “M1 receptor binding ability / selectivity (in words)” value was “strong and specific M1 receptor binding ability”. In addition, the “M1 receptor binding ability compared with muscarinic agonists (in words)” value in data set [5] was “stronger binding ability to M1 than muscarinic agonists, AF102B (in course of clinical testing) and McN-A-343”.

`C[N+](C)(C)CC#CCOC(=O)Nc1cccc(Cl)c1` [McN-A-343, 4[[[3-chlorophenyl)amino]carbonyl]oxy]-N, N, N-trimethyl-2-butyn-1-aminium chloride, reference compound] showed an IC50 in data set [2] (setting [8]) of over 10000 nM. Moreover, in data set [5], the “nH (pseudo Hill coefficient)” value was found to be 0.9 ± 0.05, the IC50 stood at 842 ± 88 nM and the Ki is 581 ± 61 nM.

As for `Nc1c2c(nc3ccccc13)CCCC2` [Tacrine, tetrahydroaminoacridine, reference compound], the Latency turned out to be 79 s in data set [1] (1.0 mg/kg p.o., 30 minutes before aquisition trial) and 188 s in data set [1] (5.0 mg/kg p.o., 30 minutes before aquisition trial).

For the compound `C(=C1\CN2CCC1CC2)/c1cccc(Oc2ccccc2)c1` [Compound 1b], the Latency in data set [1] (0.01 mg/kg p.o., 1 hour before aquisition trial) was determined as 76 s; in data set [1] (setting [6]) it was 182 s; in data set [1] (setting [7]), 139 s; in data set [1] (10 mg/kg p.o., 1 hour before aquisition trial), 99 s. In addition, in data set [1], the minimal effective dose is 0.1 mg/kg. Moreover, the “nH (pseudo Hill coefficient)” value in data set [2] ((3H)N-methyl scopolamine, rat heart) was found to be 1.0 ± 0.02; in data set [5], 0.8 ± 0.07. The IC50 in data set [2] (setting [8]) was 4400 ± 100 nM; in data set [2] (M2 receptor binding), at most 10000 nM; in data set [5], 23 ± 3 nM. Besides, the Ki in data set [2] ((3H)N-methyl scopolamine, rat heart, calculated from IC50) was 1700 ± 40 nM; in data set [5], 16 ± 2 nM. Also, in data set [2] (M2 vs M1), the “M2 receptor binding ability weaker than M1 receptor binding ability” value is “about 190 times”. Besides, the LD50 at 336 h in data set [3] was at least 100 mg/kg. For the same compound, the dead mice entry in data set [4] is “no dead mice”. The “M1 receptor binding ability / selectivity (in words)” value in data set [5] was “strong and specific M1 receptor binding ability”. Besides, the “M1 receptor binding ability compared with muscarinic agonists (in words)” value in data set [5] is “stronger binding ability to M1 than muscarinic agonists, AF102B (in course of clinical testing) and McN-A-343”.

Consider `CC1OC2(CS1)CN1CCC2CC1` (stereo not drawn) [AF102B, cis-2-methylspiro(1,3-oxathiolane-5,3') quinuclidine, reference compound], for which the minimal effective dose in data set [1] was 1 mg/kg. For the same compound, the IC50 in data set [2] (setting [8]) was over 10000 nM. In addition, in data set [5], the “nH (pseudo Hill coefficient)” value is given as 0.8 ± 0.01, the IC50 turned out to be 729 ± 116 nM and the Ki is 509 ± 80 nM.
